In ChEMBL document CHEMBL1147257, “New cytotoxic steroidal alkaloids from the Philippine sponge Corticium niger” (J Nat Prod, 2003):
pIC50: −log10 of the molar value.

The compounds below were run on HCT-116 (assay: Cytotoxicity against human HCT116 cells after 72 hrs by MTS/PMS bioreduction assay). Conditions: HCT-116, 72 h.
Type: functional, cell-based
CN[C@@H]1CC[C@]2(C)[C@H]3CC[C@]4(C)[C@@H]([C@H](C)CC5NCCC5C(C)C)CC[C@H]4C3=CC[C@H]2[C@H]1OC(C)=O (some centres undefined) gave a pIC50 of 5.85.
CC(C)=C1CCN2[C@@H]1C[C@@H](C)[C@H]1[C@@H]2C[C@H]2C3=CC[C@H]4C[C@H](N(C)C)CC[C@]4(C)[C@H]3CC[C@]12C [PLAKINAMINE I] showed a pIC50 of 4.97.
Work on CC(C)C1CCN(C)C1C[C@@H](C)[C@H]1CC[C@H]2C3=CC[C@H]4[C@H](N)C=CC[C@]4(C)[C@H]3CC[C@]12C (some centres undefined) [PLAKINAMINE J] yielded a pIC50 of 5.21.
CN[C@@H]1CC[C@]2(C)[C@H]3CC[C@]4(C)[C@@H]([C@H](C)CC5NCCC5=C(C)C)CC[C@H]4C3=CC[C@H]2[C@H]1OC(C)=O (some centres undefined) [PLAKINAMINE K] gave a pIC50 of 5.85.
